Data set [1] in a line: Disintegration test (solubility in liquid No. 1 of the Japanese Pharmacopoeia). It is filed as physicochemical. The note with it: simulated gastric fluid, thermodynamic from solid; liquid No. 1 for disintegration test (Japanese Pharmacopoeia), pH 1.2, shaken two hours, room temperature, 0.45 μm filtrate. The source says: Compounds of the present invention and the compounds mentioned in the previously-filed Japanese Patent Applications Hei-09/88660 (hereinafter, referred to as “A”) and Hei-09/90146 (hereinafter, referred to as “B”) as controls were suspended in a liquid No. 1 for disintegration test regulated by the Japanese Pharmacopoeia, shaken for two hours, allowed to stand at room temperature for one hour and filtered through a membrane filter of 0.45 μm. Absorbance of a mixture of this filtrate with methanol in the same amounts was measured and, from the previously-determined ε1% 1cm values, solubility was calculated.

The test system of another data set is HepG2 cells. Description: ACAT inhibitory action (anti-foaming action) in HepG2 cells. Type of data set: cell-based. The note with it: Homo sapiens, 10 μg/ml 25-OH cholesterol, 18 hours, cholesterol ester per protein, read-out: Enzyme (HepG2) IC50.
The subject of the next data set is J774 cells. Put plainly: ACAT inhibitory action (anti-foaming action) in J774 cells. It is filed as cell-based. The note with it: Mus musculus, 10 μg/ml 25-OH cholesterol, 18 hours, cholesterol ester per protein, read-out: Enzyme (J774) IC50.

Structures are written as SMILES. Values after ≈ are worked out from the molar mass of the structure shown.

For `CC(C)c1cccc(C(C)C)c1NC(=O)CN1CCN(CCSc2nc3ncccc3o2)CC1` [Example 6, 2-[4-[2-(oxazolo[4,5-b]pyridine-2-ylthio)ethyl]-piperazin-1-yl]-N-(2,6-diisopropylphenyl)acetamide], the melting point (as a rule, the temperature, or range, at which the solid turns liquid) is 153 to 154 °C. In data set [1], the solubility (commonly the dissolved amount per volume that the medium holds) at 2 h was 35 mg/mL (≈ 72.7 mM). The compound `COC(=O)c1cccc2oc(SCCN3CCN(CC(=O)Nc4c(C(C)C)cccc4C(C)C)CC3)nc12` [Example 5, 2-[4-[2-(4-methoxycarbonylbenzoxazol-2-ylthio)ethyl]-piperazin-1-yl]-N-(2,6-diisopropylphenyl)acetamide] registered a melting point of 173 to 175 °C. Also, in the data set with HepG2 cells, the IC50 (as a rule, the concentration at which inhibition is half-maximal) was found to be 1450 nM. Besides, in the data set with J774 cells, the IC50 was 100 nM.

With `CCCCCCCCCN(CC(C)(C)C)C(=O)N[C@H]1CCCC[C@@H]1OC(=O)CCNC(=O)C1OC(C)(C)OCC1(C)C` (stereo partly drawn) [Control 3, reference compound], in the data set with J774 cells, the IC50 came to 320 nM. Regarding `COC(=O)c1cccc2nc(SCCCN3CCN(CC(=O)Nc4c(C(C)C)cccc4C(C)C)CC3)oc12` [Example 10, 2-[4-[3-(7-methoxycarbonylbenzoxazol-2-ylthio)propyl]piperazin-1-yl]-N-(2,6-diisopropylphenyl)acetamide], the melting point lay within 135 to 136 °C. Also, in the data set with HepG2 cells, the IC50 was 4900 nM. In the data set with J774 cells, the IC50 came out at 270 nM. `CC(C)c1cccc(C(C)C)c1NC(=O)CN1CCCN(CCCSc2nc3ccccc3o2)CC1` [Example 13, 2-[4-[3-(benzoxazol-2-ylthio)propyl]-homopiperazin-1-yl]-N-(2,6-diisopropylphenyl)acetamide] showed a melting point of 109 to 111 °C. This compound registered a solubility at 2 h in data set [1] of 7.4 mg/mL (≈ 14.5 mM). In data set [1], `CC(C)c1cccc(C(C)C)c1NC(=O)CN1CCN(CCSc2nc3ccccc3o2)CC1` [Example 1, 2-[4-[2-(benzoxazol-2-ylthio)ethyl]-piperazin-1-yl]-N-(2,6-diisopropylphenyl)acetamide] gave a solubility at 2 h of 14 mg/mL (≈ 29.1 mM). In data set [1], `CC(C)c1cccc(C(C)C)c1NC(=O)CCCCCSc1nc2ccccc2o1` [Control 6, 6-(Benzoxazol-2-ylthio)-N-(2,6-diisopropylphenyl)hexanamide, reference compound] had a solubility at 2 h of 5e-05 mg/mL (≈ 0.000118 mM). In turn, `CSc1cc(C)nc(SC)c1NC(=O)CN1CCN(CCSc2nc3ccccc3o2)CC1` [Example 24, 2-[4-[2-(benzoxazol-2-ylthio)ethyl]piperazin-1-yl]-N-(2,4-bis(methylthio)-6-methyl-3-pyridyl)acetamide] yielded a melting point of 140 to 141 °C. The compound also had a solubility at 2 h in data set [1] of 17 mg/mL (≈ 33.7 mM).

The record behind these values is patent US6969711B2, “Cyclic diamine compounds and medicine containing the same” (Kowa Company, Ltd., priority 1997, dated 2005).
